Test results taken from article PMC10993450, “New benzimidazole derivative compounds with in vitro fasciolicidal properties” (Parasites & Vectors, 2024).
“And” between values parts separate entries of the source, which are not always exact repeats. Equal values may be shown once. “Also recorded” adds a separate entry of the source. Read-outs that look alike come from different tables or passages of the source.

Tests used:
[1] = test system: Fasciola hepatica adults (ABZ-resistant isolate); test: Adult viability test (AVT), motility inhibition; format: cell-based; details: 10 µM, ABZ-resistant isolate; for inhibition at 10 µM: Fasciola hepatica, relative to motility score at 24 h
Experimental: The adult viability test was based on a previous study carried out by Kirchhofer et al. with minor modifications. In brief, adult F. hepatica flukes were recovered from bile ducts of infected sheep with the resistant isolate. Flukes were quickly washed with 0.9% (w/v) NaCl and placed in six-well plates (Costar, Spain) with RPMI 1640 culture medium (Sigma-Aldrich®, Spain) supplemented with antibiotics (50 μg/mL streptomycin and 50 IU/mL penicillin; Sigma-Aldrich®, Spain) and 80 μg/mL of a hemin solution at 37 °C.
To monitor the anthelmintic effect of BZDs and the commercial drug ABZ, two flukes per well were incubated up to 72 h at a final concentration of 10 µM. DMSO at 0.5% was used as negative control. The individual movement of each fluke was examined using an inverted microscope at 24, 48, and 72 h. The activity of the compounds was estimated as motility inhibition, using a scale of fluke viability ranging from 3 (normal movements) to 0 (death, no movement observed for 2 min). All tests were repeated at least twice at different days.
Additionally, the percentage of motility inhibition for each compound was calculated from […] to 48 and 72 h after treatment using the following formula: 100 × (mean of the motility score of BZD at 24 h − mean of the motility score of BZD at 48 or 72 h)/(mean of the motility score of BZD at 24 h).
For the AVT, statistical analysis was performed using GraphPad Prism version 8.0.2. The normality of the motility inhibition scores was assessed using the Shapiro–Wilk test. Then, differences among scores at the three time points (24, 48, and 72 h) were evaluated using the Friedman test. In cases where significant differences were observed, post hoc analysis was conducted using the Nemenyi test for multiple comparisons. Comparisons with a P value < 0.05 were considered statistically significant.

[2] = test system: Fasciola hepatica eggs (ABZ-resistant isolate); test: Egg hatch test (EHT), ABZ-resistant isolate; format: cell-based; details: 5 µM, mean ± SEM
Text: F. hepatica eggs were recovered after washing the gallbladder of three naturally infected sheep belonging to a flock suspected to be resistant to ABZ. From these eggs, metacercariae were produced at the Centro de Investigaciones de Mabegondo (AGACAL, Xunta de Galicia, Spain) following a previous protocol. These metacercariae were used to infect eight sheep with a dose of 200 metacercariae. The infection was confirmed individually 3 months after the infection by coprological analysis using a sedimentation technique. At that point, sheep were randomly located in two groups of four animals: one treated with a therapeutic dose of ABZ (7.5 mg/kg) and the other one only with water, as control group. To assess the efficacy of ABZ in this isolate, all sheep were humanely euthanized by an intravenous administration of a lethal dose of sodium pentobarbital (Dolethal®, Vetoquinol, Spain) 2 weeks later for fluke recovery and counting. Afterwards, the in vivo efficacy of ABZ was calculated as the percentage of adult worm reduction compared with the untreated control. Additionally, the number of eggs per gram of feces (EPG) was estimated on the treatment day (mentioned as day 0) and 14 days later to determine drug efficacy by means of the fecal egg count reduction test (FECRT).
During the necropsy, gallbladders from sheep belonging to the untreated group were taken to collect the eggs and carry out the in vitro EHT, while flukes collected from livers were used to conduct the adult viability test (AVT).
Those BZDs with an activity higher than 80% at a concentration of 10 µM were also screened on eggs and adults from the ABZ resistant isolate.
The in vitro EHT described in the current study was based on previous studies. Briefly, 100–120 eggs were incubated in 990 µL of water and 10 μL of each working solution at 25 °C in the dark for a period of 12 h. After incubation, eggs were gently washed with tap water three times to facilitate compound removal and kept in darkness at 25 °C for 14 days. After this period, eggs were exposed to light for 2 h to stimulate the hatching of eggs. Then, hatched and unhatched eggs were evaluated and counted using an optical microscope. The term “hatched eggs” includes both hatched and embryonated eggs. Negative control eggs were incubated with 10 μL of DMSO in 990 μL of water, reaching a maximum DMSO concentration of 1% (v/v), while ABZ at 0.5 µM was used as positive control. Each compound at a specific concentration was tested in triplicate in the same EHT and repeated at least two different days.
The efficacy of each compound and drug was calculated as its ovicidal activity following the formula below: Ovicidal activity%=100×%eggs hatched in negative control-%egg hatched after drug incubation/%egg hatched in control.

[3] = test system: Caco2 cells; parameters: method as in doi:10.1016/j.molstruc.2022.133735; details: cited from earlier work
[4] = read-out: % Adult motility inhibition 48 h
[5] = read-out: % Adult motility inhibition 72 h

Cc1ccc2[nH]c(NCc3cccs3)nc2c1 [BZD31]
Motility inhibition of adults after 72 h of incubation (in words; significance vs 24 h) [1]: significant reduction
inhibition at 10 µM [1, 4]: 35.7%
inhibition at 10 µM [1, 5]: 38.1%
% Ovicidal activity resistant isolate [2]: 53% and 53.24 ± 20.94%

Cc1ccc2[nH]c(NC(=O)c3ccccc3)nc2c1 [BZD46]
Motility inhibition of adults after 72 h of incubation (in words; significance vs 24 h) [1]: nor those with ABZSO or BZD46, exhibited any significant motility inhibition
inhibition at 10 µM [1, 4]: 28.6%
inhibition at 10 µM [1, 5]: 28.6%
% Ovicidal activity resistant isolate [2]: 11.06 ± 05.30%
% Ovicidal activity resistant isolate ([2]; listed as BZD-46): below 13%

COc1ccc2[nH]c(NC(=O)c3ccccc3)nc2c1 [BZD56]
Motility inhibition of adults after 72 h of incubation (in words; significance vs 24 h) [1]: significant reduction
inhibition at 10 µM [1, 4]: 53%
inhibition at 10 µM [1, 5]: 51.5%
% Ovicidal activity resistant isolate [2]: 12.39 ± 03.71%
% Ovicidal activity resistant isolate ([2]; listed as BZD-56): below 13%

O=C(Nc1nc2cc(Cl)ccc2[nH]1)c1ccccc1 [BZD59]
CC50 [3]: ~62 µM
Motility inhibition of adults after 72 h of incubation (in words; significance vs 24 h) [1]: high motility inhibition; also recorded: significant reduction; also recorded: most potent compound; also recorded: most significant reduction in worm motility
inhibition at 10 µM [1, 4]: 46.7%
inhibition at 10 µM [1, 5]: 60%
% Ovicidal activity resistant isolate [2]: 06.28 ± 05.20%
% Ovicidal activity resistant isolate ([2]; listed as BZD-59): below 13%
